The text below walks through data of US5874078A, “Reagent composition of glutamate dehydrogenase from pseudomonas” (Toyo Boseki Kabushiki Kaisha, priority 1994, dated 1999).

Each structure is given as a SMILES string. Like-named read-outs stand apart in the source and are kept apart here.

The target of experiment [1] is T1, Bovine Liver CLDH (glutamate dehydrogenase derived from bovine liver) (Bos taurus, UniProt P00366).
T1 construct: Bovine Liver CLDH; from tissue; host or cells: bovine liver
Put plainly: Activation by ADP (reductive amination activity). Particulars: 2.5 mM ADP, pH 8.3, 30° C., read-out: activity with 2.5 mM ADP (without ADP = 100%). The experiment is classed as biochemical. How it is done:
(§1) A method of measuring an activity of the glutamate dehydrogenase of the present invention by means of a reductive amination will be as follows.
(§2) The above reaction mixture solution (2.9 ml) is taken in a cuvette and subjected to a preliminary heating at 30° C. for about five minutes. Then the reaction is initiated by adding 0.1 ml of an enzyme solution thereto, decrease in absorbance of 340 nm in a spectrophotometer controlled at 30° C. is recorded for 3-4 minutes and, out of its linear portion, the decrease in the absorbance per minute is determined. A blank test is carried out according to the same operations as above except that 0.1M Tris-HCl buffer (pH: 8.3) is added instead of the enzyme solution. The way of expression of an activity of the glutamate dehydrogenase is in such a manner that the amount of the enzyme by which 1 micromole of NADH is oxidized per minute under the above-mentioned conditions is defined as one unit (U).
(§3) ADP was added to the reagent for measuring the activity of glutamate dehydrogenase of the present invention (a reductive amination) to make it 2.5 mM and the resulting activity was compared with that where nothing was added.

Experiment [2] deals with glutamate dehydrogenase from Pseudomonas sp. 433-3 (FERM P-14092). Put plainly: Activation by ADP (reductive amination activity). The experiment is classed as biochemical. Particulars: pH 8.3, 30° C. On the procedure: as §1, §2, §3
For experiment [3] the test system is unchanged. Put plainly: Km values of glutamate dehydrogenase. The experiment is classed as biochemical. On the procedure:
The above reaction mixture solution (2.9 ml) is taken in a cuvette and subjected to a preliminary heating at 30° C. for about five minutes. Then the reaction is initiated by adding 0.1 ml of an enzyme solution thereto, decrease in absorbance of 340 nm in a spectrophotometer controlled at 30° C. is recorded for 3-4 minutes and, out of its linear portion, the decrease in the absorbance per minute is determined. A blank test is carried out according to the same operations as above except that 0.1M Tris-HCl buffer (pH: 8.3) is added instead of the enzyme solution. […]
The above reaction mixture solution (2.9 ml) was taken in a cuvette and subjected to a preliminary heating at 30° C. for about five minutes. Then the reaction was initiated by adding 0.1 ml of an enzyme solution thereto, […] at 30° C. was recorded for 3-4 minutes and, out of its linear portion, the decrease in the absorbance per minute was determined. A blank test was carried out according to the same operations as above except that 0.1M Tris-HCl buffer (pH: 9.0) was added instead of the enzyme solution.

Experiment [4] has as its target NAD+-dependent glutamate dehydrogenase (EC 1.4.1.2) from Peptococcus aerogene (Peptoniphilus asaccharolyticus, UniProt P28997). The conditions noted are these: read-out: Km Value to NH3; Table 3; Can. J. Microbiol. 18, 881 (1972); cited from earlier work.
The subject of experiment [5] is NAD+-dependent glutamate dehydrogenase (EC 1.4.1.2) from Clostridium sp. SB4. Particulars: read-out: Km Value to NH3; Table 3; The Enzymes, 3rd Ed. 11, 293 (1975); cited from earlier work.
The subject of experiment [6] is NAD+-dependent glutamate dehydrogenase (EC 1.4.1.2) from Synechocystis sp. Particulars: read-out: Km Value to NH3; Table 3; FEBS Lett. 285, 35 (1991); cited from earlier work.

NAD+-dependent glutamate dehydrogenase (EC 1.4.1.2) from Peptococcus aerogene, sequence (P28997 whole entry): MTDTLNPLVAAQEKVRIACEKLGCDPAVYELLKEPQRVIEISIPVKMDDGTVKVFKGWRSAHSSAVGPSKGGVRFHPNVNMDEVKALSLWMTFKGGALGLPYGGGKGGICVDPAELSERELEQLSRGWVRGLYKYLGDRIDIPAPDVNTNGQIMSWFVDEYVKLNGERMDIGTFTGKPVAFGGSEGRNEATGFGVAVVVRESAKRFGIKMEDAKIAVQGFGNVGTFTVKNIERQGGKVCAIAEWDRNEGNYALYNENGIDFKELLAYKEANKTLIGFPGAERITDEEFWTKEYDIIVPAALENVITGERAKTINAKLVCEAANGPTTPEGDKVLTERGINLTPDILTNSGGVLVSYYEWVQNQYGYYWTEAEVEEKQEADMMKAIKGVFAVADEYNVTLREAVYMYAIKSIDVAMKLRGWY
T1 sequence (P00366 58-558): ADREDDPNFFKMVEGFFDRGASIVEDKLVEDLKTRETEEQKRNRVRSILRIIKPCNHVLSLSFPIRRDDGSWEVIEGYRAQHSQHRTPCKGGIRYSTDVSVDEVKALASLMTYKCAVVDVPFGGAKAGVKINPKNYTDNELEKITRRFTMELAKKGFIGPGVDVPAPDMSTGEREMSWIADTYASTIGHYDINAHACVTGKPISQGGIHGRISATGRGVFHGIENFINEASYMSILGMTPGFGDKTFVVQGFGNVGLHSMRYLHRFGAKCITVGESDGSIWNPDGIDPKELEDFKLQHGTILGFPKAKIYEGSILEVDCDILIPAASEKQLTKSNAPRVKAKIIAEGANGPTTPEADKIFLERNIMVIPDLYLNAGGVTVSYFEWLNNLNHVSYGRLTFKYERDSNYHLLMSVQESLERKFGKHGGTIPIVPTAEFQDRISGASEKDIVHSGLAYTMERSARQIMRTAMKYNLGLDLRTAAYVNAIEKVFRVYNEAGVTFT

Take `Nc1ncnc2c1ncn2[C@@H]1O[C@H](COP(=O)(O)OP(=O)(O)O)[C@@H](O)[C@H]1O` [ADP]: the activity at 2500 µM in experiment [1] amounted to 145%. Moreover, in experiment [2], the “activity with 2.5 mM ADP (without ADP = 100%)” value turned out to be 100%.
Take `N` [ammonia]: the Km in experiment [3] (Table 3, This Invention, read-out: Km Value to NH3) is 8.5 mM; in experiment [3] (read-out: Km value to ammonia), 8.5 mM; in experiment [4] it was 18.4 mM; in experiment [5], 0.32 mM; in experiment [6] it was 4.5 mM.
For the compound `NC(=O)c1ccc[n+]([C@@H]2O[C@H](COP(=O)(O)OP(=O)([O-])OC[C@H]3O[C@@H](n4cnc5c(N)ncnc54)[C@H](O)[C@@H]3O)[C@@H](O)[C@H]2O)c1` [NAD^+], the Michaelis-Menten constant (Km) in experiment [3] (read-out: Km value to NAD^+) was determined as 0.1 mM.
Consider `NC(=O)C1=CN([C@@H]2O[C@H](COP(=O)(O)OP(=O)(O)OC[C@H]3O[C@@H](n4cnc5c(N)ncnc54)[C@H](O)[C@@H]3O)[C@@H](O)[C@H]2O)C=CC1` [NADH], for which, in experiment [3] (read-out: Km value to NADH), the Km worked out at 0.19 mM.
As for `N[C@@H](CCC(=O)O)C(=O)O` [L-glutamic acid], the Km in experiment [3] (read-out: Km value to L-glutamic acid) is 17 mM.
